Data taken from patent US9029366B2, “Substituted bicyclic alkoxy pyrazole analogs as allosteric modulators of mGluR5 receptors” (Vanderbilt University, priority 2012, dated 2015).
Read-outs that look alike come from different tables or passages of the source.

Target: human mGluR5 (Homo sapiens, UniProt P41594)
Test: Cell-based functional Ca2+ mobilization assay (FDSS), potentiation of glutamate EC20 response, HEK293A cells transfected with human mGluR5a (H10H or H12H cell line)
Conditions: in presence of glutamate EC20, ** = compound is an antagonist; for Emax: HEK293-A
Method: Human embryonic kidney (HEK) cells transfected with rat mGluR5 were plated in clear bottom assay plates for assay in a Functional Drug Screening System (FDSS). In the alternative assay, HEK cells transfected with human mGluR5 were plated for assay in the FDSS. In some cases the HEK cells transfected with human mGluR5 are the H10H cell line. Alternatively, the HEK cells transfected with human mGluR5 are the H12H cell line. […] The cells were loaded with a Ca^2+-sensitive fluorescent dye (e.g., Fluo-4), and the plates were washed and placed in the FDSS instrument. After establishment of a fluorescence baseline for about three seconds, the compounds of the present invention were added to the cells, and the response in cells was measured. Five minutes later, an mGluR5 agonist (e.g., glutamate, 3,5-dihydroxyphenylglycine, or quisqualate) was added to the cells, and the response of the cells was measured.
The above described assay can be operated in two modes. In the first mode, a range of concentrations of the present compounds were added to cells, followed by a single fixed concentration of agonist. If a compound acted as a potentiator, an EC50 value for potentiation and a maximum extent of potentiation by the compound at this concentration of agonist was determined by non-linear curve fitting. In the second mode, several fixed concentrations of the present compounds were added to various wells on a plate, followed by a range of concentrations of agonist for each concentration of present compound; the EC50 values for the agonist at each concentration of compound were determined by non-linear curve fitting. A decrease in the EC50 value of the agonist with increasing concentrations of the present compounds (a leftward shift of the agonist concentration-response curve) is an indication of the degree of mGluR5 potentiation at a given concentration of the present compound. An increase in the EC50 value of the agonist with increasing concentrations of the present compounds (a rightward shift of the agonist concentration-response curve) is an indication of the degree of mGluR5 antagonism at a given concentration of the present compound. The second mode also indicates whether the present compounds also affect the maximum response to mGluR5 to agonists.
Human mGluR5a cDNA in pCMV6-XL6 mammalian expression plasmid was purchased from OriGene Technologies, Inc. (catalogue number SC326357) and subcloned into pcDNA3.1(−). Human embryonic kidney (HEK)293A cells were then transfected with human mGluR5a pcDNA3.1(−) using LipofectAmine2000 (Invitrogen) and monoclones were selected and tested for functional response using a Ca^2+ mobilization assay. Monoclones were named for the species (“H” for human) plus the location on the plate (e.g. “10H”).
HEK cells transfected with the human mGluR5a receptor (H10H or H12H cell line) were plated at 15,000 cells/well in clear-bottomed poly-D-lysine-coated assay plates (BD Falcon) in glutamate-glutamine-free growth medium and incubated overnight at 37° C. and 5% CO2. Cell-lines used were either the H10H or H12H cell-lines expressing the human mGluR5 receptor. The following day, the growth medium was removed and the cells were washed with assay buffer containing 1× Hank's balanced salt solution (Invitrogen, Carlsbad, Calif.), 20 mM HEPES, 2.5 mM probenecid, pH 7.4 and left with 20 μL of this reagent. Following this step, the cells were loaded with calcium indicator dye, fluo-4 AM, to a final concentration of 2 μM and incubated for 40-45 min at 37° C. The dye solution was removed and replaced with assay buffer. Cell plates were held for 10-15 min at room temperature and were then loaded into the Functional Drug Screening System 6000 (FDSS 6000, Hamamatsu, Japan).
After establishment of a fluorescence baseline for about 3 seconds, the compounds of the present invention were added to the cells, and the response in cells was measured.

[1] = H10H cell line expressing recombinant human mGluR5, read-out: pEC50 (converted)
[2] = H10H cell line expressing recombinant human mGluR5, % of maximal glutamate response

human mGluR5, sequence (P41594 21-1180 isoform P41594-2 limits assumed): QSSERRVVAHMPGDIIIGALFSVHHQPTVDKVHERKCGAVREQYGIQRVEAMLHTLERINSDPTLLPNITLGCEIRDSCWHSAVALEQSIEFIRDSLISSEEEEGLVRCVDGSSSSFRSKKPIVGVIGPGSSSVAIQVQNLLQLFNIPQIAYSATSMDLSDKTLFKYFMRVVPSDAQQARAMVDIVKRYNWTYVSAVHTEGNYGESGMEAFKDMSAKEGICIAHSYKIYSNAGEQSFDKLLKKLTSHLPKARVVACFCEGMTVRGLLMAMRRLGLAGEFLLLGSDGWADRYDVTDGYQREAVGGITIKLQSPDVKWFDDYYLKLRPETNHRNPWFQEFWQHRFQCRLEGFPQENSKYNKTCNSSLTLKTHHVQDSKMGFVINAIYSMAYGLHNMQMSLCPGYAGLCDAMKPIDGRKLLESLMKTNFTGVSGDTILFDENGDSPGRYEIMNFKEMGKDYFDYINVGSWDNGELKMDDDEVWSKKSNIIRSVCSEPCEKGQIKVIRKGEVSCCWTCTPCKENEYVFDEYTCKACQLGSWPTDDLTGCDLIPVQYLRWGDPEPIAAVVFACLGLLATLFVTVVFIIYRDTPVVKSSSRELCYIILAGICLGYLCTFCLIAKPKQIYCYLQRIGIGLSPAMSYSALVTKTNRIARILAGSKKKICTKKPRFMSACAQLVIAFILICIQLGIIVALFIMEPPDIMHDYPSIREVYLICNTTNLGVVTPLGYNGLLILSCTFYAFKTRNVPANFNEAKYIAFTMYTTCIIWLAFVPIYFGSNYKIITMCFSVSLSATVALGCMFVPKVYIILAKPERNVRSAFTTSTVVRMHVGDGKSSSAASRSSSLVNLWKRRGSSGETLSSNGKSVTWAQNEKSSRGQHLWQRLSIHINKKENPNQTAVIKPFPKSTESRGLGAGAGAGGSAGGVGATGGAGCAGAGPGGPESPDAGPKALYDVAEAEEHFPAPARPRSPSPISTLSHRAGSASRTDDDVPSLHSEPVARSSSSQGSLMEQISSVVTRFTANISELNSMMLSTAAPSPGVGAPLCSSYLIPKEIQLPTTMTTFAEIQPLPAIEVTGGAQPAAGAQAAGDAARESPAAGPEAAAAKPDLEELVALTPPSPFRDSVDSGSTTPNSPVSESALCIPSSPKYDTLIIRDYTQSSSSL

Compound	EC50 [1] [nM]	Emax [2] [%]	Emax (%) [2] [%]	EC50 (pEC50, H10H cell line expressing recombinant human mGluR5) [nM]
O=C(CC1CCCC1)N1CCn2nc(OCc3ccccc3)cc2C1 [Example B67]	479	52		
O=C(c1ccc(F)cc1)N1CCn2nc(OCc3ccnc(C(F)(F)F)c3)cc2C1 [Example B123]	≥ 10000	30		
C[C@H]1Cn2nc(OCc3ccccc3)cc2CN1C(=O)c1ccc(Cl)n1C [Example B91]	3630	69		
N#Cc1cc(COc2cc3n(n2)CCN(C(=O)c2ccc(F)cc2)C3)ccn1 [Example B127]	562	36		
O=C(c1ccc(F)cc1)N1CCn2nc(OCc3ccc4nccn4c3)cc2C1 [Example B118]	> 30200	25		
CC(C)(C)CC(=O)N1CCn2nc(OCc3ccccc3)cc2C1 [Example B68]	355	69		
O=C(CCC(F)(F)F)N1CCn2nc(OCc3ccccc3)cc2C1 [Example B70]	> 30200	25		
O=C(c1ccc(F)cc1)N1CCn2nc(OCc3ncccn3)cc2C1 [Example B117]	> 30200	30		
CC(C)(C)OCC(=O)N1CCn2nc(OCc3ccccc3)cc2C1 [Example B21]	631	53		
Cn1ccc(COc2cc3n(n2)CCN(C(=O)c2ccc(F)cc2)C3)cc1=O [Example B128]	> 30200	28		
C[C@@H]1Cn2nc(OCc3ccccc3)cc2CN1C(=O)c1ccc(F)cc1 [Example B7]	813	62		
O=C(CC(F)(F)F)N1CCn2nc(OCc3ccccc3)cc2C1 [Example B69]	> 30200	16		
CC(C)(C)NCC(=O)N1CCn2nc(OCc3ccccc3)cc2C1 [Example B25]	> 30200	20		
O=C(N1CCn2nc(OCc3ccccc3)cc2C1)C12C3C4C5C3C1C5C42 (centres unmarked) [Example B125]	245	73		
O=C(c1ccc(F)cc1)N1CCn2nc(OCc3ccncc3Cl)cc2C1 [Example B136]	≥ 10000	41		
CC(C)OCC(=O)N1CCn2nc(OCc3ccccc3)cc2C1 [Example B23]	3240	34		
O=C(c1ccc(F)cc1)N1CCn2nc(OCc3ccnc(Cl)c3)cc2C1 [Example B126]	178	35		
O=C(c1ccc(F)cc1)N1CCn2nc(OCc3ccnc(F)c3)cc2C1 [Example B116]	≥ 10000	51		
O=C(c1ccc(F)cc1)N1CCn2nc(OCc3cc[n+]([O-])cc3)cc2C1 [Example B135]	≥ 10000	38		
CS(=O)(=O)c1cccc(COc2cc3n(n2)CCN(C(=O)c2ccc(F)cc2)C3)c1 [Example B122]	> 30200	28		
O=C(c1ccc(F)cc1)N1CCn2nc(OCc3cccc(C(F)F)c3)cc2C1 [Example B124]	676	54		
O=C(c1ccco1)N1CCn2nc(OCc3ccccc3)cc2C1 [Example B55]		55		324
CC(C)(C)CCC(=O)N1CCn2nc(OCc3ccccc3)cc2C1 [Example B26]	589	59		

Second part, led by results:

EC50 [1] [nM]	Emax [2] [%]	Emax (%) [2] [%]	Compound	EC50 (pEC50, H10H cell line expressing recombinant human mGluR5) [nM]
891	37		O=C(c1ccnc(F)c1)N1CCn2nc(OCc3ccccc3)cc2C1 [Example B138]	
> 30200	25		O=C(c1ccccc1C(F)(F)F)N1CCn2nc(OCc3ccccc3)cc2C1 [Example B41]	
> 30200	26		O=C(c1ncccn1)N1CCn2nc(OCc3ccccc3)cc2C1 [Example B51]	
47.9	74		Cn1c(Cl)ccc1C(=O)N1CCCn2nc(OCc3ccccc3)cc2C1 [Example B90]	
> 30200	20		Cc1ccoc1C(=O)N1CCn2nc(OCc3ccccc3)cc2C1 [Example B54]	
1230	39		O=C(c1ccc(Cl)c(Cl)c1)N1CCn2nc(OCc3ccccc3)cc2C1 [Example B42]	
> 10000	44		O=C(c1cnccn1)N1CCn2nc(OCc3ccccc3)cc2C1 [Example B37]	
4270	46		O=C(c1ccccn1)N1CCn2nc(OCc3ccccc3)cc2C1 [Example B61]	
3800	34		O=C(COCc1ccccc1)N1CCn2nc(OCc3ccccc3)cc2C1 [Example B72]	
2000	48		O=C(c1cncc(F)c1)N1CCn2nc(OCc3ccccc3)cc2C1 [Example B63]	
95.5	33		O=C(c1ccccc1Cl)N1CCn2nc(OCc3ccccc3)cc2C1 [Example B44]	
166	68		O=C(c1ccc(F)cc1)N1CCn2nc(OCc3ccccc3)cc2C1 [Example B1, 2-(benzyloxy)-5-[(4-fluorophenyl)carbonyl]-4,5,6,7-tetrahydropyrazolo[1,5-a]pyrazine]	
> 30200	27		CCC(C)C(=O)N1CCn2nc(OCc3ccccc3)cc2C1 (centres unmarked) [Example B75]	
692	57		O=C(c1ccc(F)c(F)c1)N1CCn2nc(OCc3ccccc3)cc2C1 [Example B49]	
> 30200	20		N#Cc1ccc(C(=O)N2CCn3nc(OCc4ccccc4)cc3C2)c(F)c1 [Example B46]	
562	49		Cc1ccc(C(=O)N2CCn3nc(OCc4ccccc4)cc3C2)o1 [Example B56]	

EC50 [1] [nM]	Emax [2] [%]	Emax (%) [2] [%]	Compound	EC50 (pEC50, H10H cell line expressing recombinant human mGluR5) [nM]
		51	O=C(c1ccc(F)c(C(F)(F)F)c1)N1CCn2nc(OCc3ccccc3)cc2C1 [Example B39]	
> 10000	56		O=C(c1ncc(F)cc1F)N1CCn2nc(OCc3ccccc3)cc2C1 [Example B65]	
2000	71		O=C(c1cc[nH]n1)N1CCn2nc(OCc3ccccc3)cc2C1 [Example B52]	
275	61		O=C(c1ccsc1)N1CCn2nc(OCc3ccccc3)cc2C1 [Example B60]	
> 10000	38		O=C(c1cccnc1)N1CCn2nc(OCc3ccccc3)cc2C1 [Example B64]	
> 30200	17		CCOCC(=O)N1CCn2nc(OCc3ccccc3)cc2C1 [Example B27]	
110	25		O=C(c1cc(Cl)cc(Cl)c1)N1CCn2nc(OCc3ccccc3)cc2C1 [Example B47]	
617	40		CN(C)c1cccc(C(=O)N2CCn3nc(OCc4ccccc4)cc3C2)n1 [Example B88]	
25.1	69		Cn1c(Cl)ccc1C(=O)N1CCn2nc(OCc3ccccc3)cc2C1 [Example B81]	
166	71		O=C(c1c[nH]c2ccccc12)N1CCn2nc(OCc3ccccc3)cc2C1 [Example B59]	
2340	30		O=C(C1CC1c1ccccc1)N1CCn2nc(OCc3ccccc3)cc2C1 (centres unmarked) [Example B71]	
70.8	51		O=C(c1cccc(Cl)c1)N1CCn2nc(OCc3ccccc3)cc2C1 [Example B43]	
117	69		O=C(c1n[nH]c2ccccc12)N1CCn2nc(OCc3ccccc3)cc2C1 [Example B53]	
1230	39		O=C(c1ccc[nH]1)N1CCn2nc(OCc3ccccc3)cc2C1 [Example B57]	
> 30200	13		CCOc1ccccc1C(=O)N1CCn2nc(OCc3ccccc3)cc2C1 [Example B48]	
